From US12077555B2, “STAT degraders and uses thereof” (Kymera Therapeutics, Inc., priority 2019, dated 2024) come the findings set out here.

What all share (type): cell-based
Assay [1] addresses T1, mutant STAT3 (STAT D661Y) (Homo sapiens, UniProt P40763, D661Y).
T1 construct: endogenous in cells; host or cells: HDLM-2
The assay is described as follows: degradation of mutant STAT3 in HDLM-2 cell lines, dose response. The conditions noted are these: dose response curve.

The target of assay [2] is mutant STAT3 (Homo sapiens, UniProt P40763, D661Y). The assay is described as follows: STAT3 MSD assay, mutant STAT3 cell lines. The conditions noted are these: read-out: DC50, mutant STAT3; mutant STAT3 heme cell lines, FIG. 9. As to the method:
100 nl of compounds were added into the intermediate plate with Echo (Labcyte 550) from source plate containing a 3-fold serial dilution from top concentration of 1 mM. Cells were seeded into 96-well plates (4×10^4 cells/well/100 ul media), mixed well, and incubated for 24 hours. The media was aspirated from the cultures and 60 μL pre-chilled PIPA lysis buffer (Boston BioProducts BP-115D) with protease/phosphatase inhibitor (Roche 05892791001/Roche 04906837001) was added into the well to lyze the cells for 20 minutes at 4° C. The MSD plate (L15XA) was coated with 2 ug/ml capture antibody (ab119352) in PBS and incubated at 4° C. overnight. The next day, the plate was washed three times with TBST (CST #99975), 150 μL/well. MSD plates were blocked with 150 μL blocking buffer per well and shaken for 1 hr at RT and 600 rpm. The blocking buffer was 3% Blocker A (MSD, R93BA-4) in TBST. The MSD plate was washed three times with 150 μL/well of TBST and 70 μL cell lysate was added into the well and shaken for 1 hour at RT and 600 rpm. […] The MSD plate washed three times with 150 μL/well of TBST and added 150 μL/well of 2×MSD reading buffer diluted from 4× (MSD, R92TC-2) with water. Lastly the MSD instrument was read.

Assay [3] relates to A3/KAW cells. The assay is described as follows: CellTiter-Glo cell viability, A3/KAW. The conditions noted are these: DLBCL. A general note: Cellular ATP, detected with luciferase, serves as a proxy for viable cell number.
For assay [4], the target named is STAT3 (Homo sapiens, UniProt P40763). As to the kind of experiment: Quantitation of STAT3 degradation in A549 cells by Western blot. Set-up: expressed in transfected cells; host or cells: A549. The conditions noted are these: read-out: A549 DC50, 24 hours, tested up to 30 μM or 10 μM. An outline of the steps: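 A549 cells treated 24 h at 37° C with compound at 30, 10, 3, 1, 0.3 μM or DMSO; RIPA lysates analysed by SDS-PAGE/Western blot for total STAT3, β-actin as loading control, LI-COR fluorescence read-out. DC50 derived by sigmoidal fit of dose-dependent degradation.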
Sequence of STAT3 (P40763 whole entry): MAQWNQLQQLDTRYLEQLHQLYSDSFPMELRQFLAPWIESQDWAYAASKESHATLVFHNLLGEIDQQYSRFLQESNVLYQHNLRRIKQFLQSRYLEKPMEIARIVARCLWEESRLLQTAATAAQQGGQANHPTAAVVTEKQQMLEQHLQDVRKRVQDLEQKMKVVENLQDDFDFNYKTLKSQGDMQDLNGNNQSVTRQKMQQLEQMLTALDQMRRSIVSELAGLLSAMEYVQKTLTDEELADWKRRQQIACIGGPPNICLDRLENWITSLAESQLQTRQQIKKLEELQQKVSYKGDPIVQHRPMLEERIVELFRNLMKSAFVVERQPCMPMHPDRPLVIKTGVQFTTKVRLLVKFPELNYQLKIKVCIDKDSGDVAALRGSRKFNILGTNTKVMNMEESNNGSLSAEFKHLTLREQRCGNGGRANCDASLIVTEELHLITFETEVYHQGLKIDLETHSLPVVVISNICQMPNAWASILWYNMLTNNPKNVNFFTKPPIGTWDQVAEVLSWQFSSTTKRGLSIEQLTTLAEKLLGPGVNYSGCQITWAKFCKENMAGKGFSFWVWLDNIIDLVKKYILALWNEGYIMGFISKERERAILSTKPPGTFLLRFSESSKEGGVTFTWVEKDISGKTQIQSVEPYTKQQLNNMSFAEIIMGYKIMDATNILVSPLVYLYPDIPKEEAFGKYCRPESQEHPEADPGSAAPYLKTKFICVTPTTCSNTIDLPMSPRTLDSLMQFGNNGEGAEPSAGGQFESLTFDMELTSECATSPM

T1 sequence (P40763 whole entry D661Y): as the sequence (P40763 whole entry) above, with D661Y counted along it
Sequence of mutant STAT3 (P40763 2-770 D661Y): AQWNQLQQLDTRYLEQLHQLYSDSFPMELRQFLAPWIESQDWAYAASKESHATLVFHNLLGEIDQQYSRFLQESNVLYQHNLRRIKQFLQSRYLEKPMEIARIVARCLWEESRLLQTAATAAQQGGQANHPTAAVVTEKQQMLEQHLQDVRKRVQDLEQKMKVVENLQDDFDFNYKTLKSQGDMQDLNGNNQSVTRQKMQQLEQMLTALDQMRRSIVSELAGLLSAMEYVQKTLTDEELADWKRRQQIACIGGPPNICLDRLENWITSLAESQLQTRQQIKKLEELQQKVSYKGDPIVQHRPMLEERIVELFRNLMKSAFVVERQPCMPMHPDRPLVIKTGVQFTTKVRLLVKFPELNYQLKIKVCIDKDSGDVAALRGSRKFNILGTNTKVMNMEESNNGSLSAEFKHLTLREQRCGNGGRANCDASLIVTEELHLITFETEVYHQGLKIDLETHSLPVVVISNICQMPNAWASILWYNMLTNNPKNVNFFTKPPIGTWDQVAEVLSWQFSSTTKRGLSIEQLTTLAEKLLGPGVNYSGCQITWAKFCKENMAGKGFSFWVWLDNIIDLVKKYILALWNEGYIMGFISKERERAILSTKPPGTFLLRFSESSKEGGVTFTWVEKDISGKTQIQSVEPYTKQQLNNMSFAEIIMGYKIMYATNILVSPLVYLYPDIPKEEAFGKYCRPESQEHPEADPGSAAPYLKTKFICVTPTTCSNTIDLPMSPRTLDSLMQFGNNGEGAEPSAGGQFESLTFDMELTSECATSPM

Consider `NC(=O)CC[C@H](NC(=O)[C@@H]1CC[C@@H]2CCN(C(=O)CCCCCC#Cc3cccc4c3CN(C3CCC(=O)NC3=O)C4=O)C[C@H](NC(=O)c3cc4cc(C(=O)P(=O)(O)O)ccc4[nH]3)C(=O)N21)C(=O)NC(c1ccccc1)c1ccccc1` (stereo partly drawn) [Compound I-111, diammonium 2-[[(5S,8S,10aR)-8-[[(1S)-3-carbamoyl-1-(diphenylmethylcarbamoyl)propyl]carbamoyl]-3-[8-[2-(2,6-dioxopiperidin-3-yl)-1-oxo-3H-isoindol-4-yl]oct-7-ynoyl]-6-oxo-octahydropyrrolo[1,2-a][1,5]diazocin-5-yl]carbamoyl]-1H-indole-5-carbonylphosphonate], for which the “degradation of mutant STAT3 (STAT D661Y)” value in assay [1] is on record as “degrading mutant STAT3”. The DC50 in assay [2] was 0.068 µM; in assay [4], under 30 µM. Further, the IC50 in assay [3] (96 h, Day 4, read-out: CTG, IC50 μM, Day 4) stood at 1.9 µM. Also, in assay [3], the “CTG (% Max inh), Day 4” value was “(50-55) %”.

What is called IC50 is the concentration that gives 50% inhibition.
